Experimental data published in article PMC3752901 (Clinical cancer research : an official journal of the …, 2013).

Key:
[1] = target: T1, Abcc4 (Mus musculus, UniProt E9Q236); assay: Ex vivo mucosal-to-serosal transport in isolated stomach sacs; format: in vitro ADME; details: Abcc4(−/−) vs wildtype mice
T1 sequence (E9Q236 1-1325): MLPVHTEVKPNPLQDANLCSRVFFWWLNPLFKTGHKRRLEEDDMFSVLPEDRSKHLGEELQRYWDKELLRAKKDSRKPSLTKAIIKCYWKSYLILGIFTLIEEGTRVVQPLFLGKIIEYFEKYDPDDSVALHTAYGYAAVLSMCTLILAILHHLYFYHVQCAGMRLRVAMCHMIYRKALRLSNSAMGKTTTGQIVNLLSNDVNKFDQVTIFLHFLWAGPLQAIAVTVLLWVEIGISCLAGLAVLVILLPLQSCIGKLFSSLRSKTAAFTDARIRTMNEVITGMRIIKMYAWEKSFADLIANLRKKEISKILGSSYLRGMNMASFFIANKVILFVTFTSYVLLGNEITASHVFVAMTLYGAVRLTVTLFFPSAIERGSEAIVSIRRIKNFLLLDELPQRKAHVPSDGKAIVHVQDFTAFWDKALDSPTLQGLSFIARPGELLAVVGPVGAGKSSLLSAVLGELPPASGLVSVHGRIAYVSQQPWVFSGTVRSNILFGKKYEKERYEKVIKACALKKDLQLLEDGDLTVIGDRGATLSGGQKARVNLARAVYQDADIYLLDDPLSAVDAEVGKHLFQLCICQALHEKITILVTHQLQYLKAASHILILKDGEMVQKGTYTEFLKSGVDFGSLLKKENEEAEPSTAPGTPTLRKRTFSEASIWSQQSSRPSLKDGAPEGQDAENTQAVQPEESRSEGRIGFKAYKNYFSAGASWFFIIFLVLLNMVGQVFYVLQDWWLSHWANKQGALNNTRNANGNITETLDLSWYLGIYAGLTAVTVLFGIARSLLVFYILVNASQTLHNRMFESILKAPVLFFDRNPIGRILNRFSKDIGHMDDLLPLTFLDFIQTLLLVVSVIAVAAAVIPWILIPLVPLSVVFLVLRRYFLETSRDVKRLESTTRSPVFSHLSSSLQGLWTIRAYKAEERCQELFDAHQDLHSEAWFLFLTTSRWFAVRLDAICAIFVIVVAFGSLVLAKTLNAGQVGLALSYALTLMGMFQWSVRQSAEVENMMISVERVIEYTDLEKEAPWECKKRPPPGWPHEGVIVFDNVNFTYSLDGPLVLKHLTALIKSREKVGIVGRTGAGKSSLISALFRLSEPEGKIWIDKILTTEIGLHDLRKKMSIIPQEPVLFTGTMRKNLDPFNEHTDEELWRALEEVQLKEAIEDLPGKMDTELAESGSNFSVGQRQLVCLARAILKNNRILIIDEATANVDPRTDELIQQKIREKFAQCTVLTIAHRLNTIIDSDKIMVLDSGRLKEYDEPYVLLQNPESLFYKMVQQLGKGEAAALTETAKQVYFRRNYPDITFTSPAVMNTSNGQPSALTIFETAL

[2] = Blood cell partitioning; format: in vitro ADME, mouse

Structure (SMILES): Cc1nc(Nc2ncc(C(=O)Nc3c(C)cccc3Cl)s2)cc(N2CCN(CCO)CC2)n1 [dasatinib, Dasatinib]
- reduction of drug transport to the serosal side with Abcc4-deficiency [1]: up to 3.9 fold
- Blood cell partitioning ([2]; Abcc4(−/−) mice): 36.1 ± 2.86%
- Blood cell partitioning ([2]; wildtype mice): 33.0 ± 1.04%
